Assay results published in paper PMC8698672, “Selective Anticancer and Antimicrobial Metallodrugs Based on Gold(III) Dithiocarbamate Complexes” (Biomedicines, 2021).

Key:
BSA = target: T1, BSA (Bos taurus, UniProt P02769); test: BSA interaction, fluorescence quenching (Stern–Volmer); format: binding, bovine; conditions: for bimolecular quenching constant kq: BSA 50 μM in PBS pH 7.4; for Stern–Volmer quenching constant KSV: BSA 50 μM in PBS pH 7.4, excitation 295 nm; for number of binding sites n: modified Stern–Volmer equation; for number of binding sites n, rounded (in brackets): whole number printed in brackets after n
T1 construct: purchased Sigma Aldrich
Method: BSA was commercially available from Sigma Aldrich. A 2 mM solution of BSA was prepared in PBS (10 mM, pH = 7.4). The final concentration of the stock BSA solution was checked by UV–Vis spectra (ε279 nm = 43,824 M^−1 cm^−1). The value obtained was the real concentration of the stock solution. A 6 mM stock solution of the gold complexes in DMSO was prepared and different aliquots of the gold complex were added to a 50 μM solution of BSA in PBS and placed in a quartz cuvette of 1 cm optical path. The fluorescence spectra were recorded on a Horiba Jobin Yvon (Bensheim, Germany) fluorolog FL-3-11 spectrometer. The samples were excited at 295 nm and the emission spectra were recorded in a range from 310 to 450 nm with emission slits set to 2 nm. The fluorescence was measured for 4 min after every addition of the gold complex aliquots. The fluorescence intensities of the PBS and the gold complexes were irrelevant under the described conditions.
The data were analyzed using the Stern−Volmer equation F0/F = 1 + KSV (gold complex) = 1 + Kqτ0 (gold complex) (τ0 = lifetime of BSA in absence of the quencher) to obtain the Stern−Volmer quenching constant (KSV) and the quenching rate constant (Kq). The binding constant (Kb) was quantified using the modified Stern−Volmer equation: log {(F0 − F)/F} = log Kb + n log (gold complex) (n = number of binding sites).
This intrinsic fluorescence is extremely sensitive to the environment, so any binding or interaction of molecules induces changes in the BSA emission spectrum. Consequently, interaction with BSA studies are based on monitoring the BSA luminescence in the range of 300–450 nm by adding increasing concentrations of Au(III) complexes (Figure 3a and Figure S6). The obtained fluorescence data were analyzed using the Stern–Volmer equation, which allows the Stern-Volmer quenching constant KSV and the bimolecular quenching constant kq to be calculated (Figure 3b). In most of the cases studied, the Stern–Volmer representation fit a straight line, indicative of a single quenching mode, either static or dynamic. In case of drug development, static quenching is usually required to probe an interaction between the drug and the protein. By studying the bimolecular quenching constant (kq), the operated quenching can be determined since this parameter represents the efficiency of quenching or how accessible the fluorophores are to the quencher. Dynamic quenching depends on diffusion processes, so a higher kq value than the diffusion-controlled rate constant of the biomolecule in water, 10^10 M^−1s^−1, may indicate a contribution of static quenching. […] Additionally, the modified Stern–Volmer equation permits the values of the binding constant (Kb) for each gold complex and the number of binding sites (n) to be calculated. According to the Kb values observed in Table 3, there was a moderated interaction force between complex-BSA. These values were higher than other reported for gold(I) complexes, but similar to the documented interactions for potential drugs based on ruthenium or nickel.

[1] = system: methicillin-resistant Staphylococcus aureus (Sa); format: cell-based; conditions: 18 h, 37 °C, inhibition ≥ 80%
Method: The antimicrobial assays were performed according to the protocols of the Community for Open Antimicrobial Drug Discovery (CO-ADD). C1–6 were prepared in DMSO and water to a final testing concentration of 32 μg/mL and serially diluted 1:2-fold 8 times. Each sample concentration was prepared in 384-well plates, non-binding surface plate (NBS; Corning 3640) for each bacterial/fungal strain, all in duplicate (n = 2), and keeping the final DMSO concentration to a maximum of 0.5%. All the sample preparation was done using liquid-handling robots.
(§1) The antibacterial activity of all synthesized complexes was evaluated in five different pathogenic bacteria, including methicillin-resistant Staphylococcus aureus (Sa), Escherichia coli (Ec), Klebsiella pneumonia (Kp), Psedomonas aeruginosa (Pa), and Acinetobacter baumannii (Ab). All bacteria were cultured in cation-adjusted Mueller Hinton Broth (CAMHB) at 37 °C overnight. A sample of each culture was then diluted 40-fold in fresh broth and incubated at 37 °C for 1.5–3 h. The resultant mid-log phase cultures were diluted (CFU/mL measured by OD600), then added to each well of the complexes containing plates, giving a cell density of 5 × 10^5 CFU/mL and a total volume of 50 μL. All the plates were covered and incubated at 37 °C for 18 h without shaking. The inhibition of bacterial growth was determined by measuring the absorbance at 600 nm (OD600) using a Tecan M1000 Pro monochromator plate reader (Männedorf, Switzerland). The percentage of growth inhibition was calculated for each well, using the negative control (media only) and positive control (bacteria without inhibitors) on the same plate as references. […]

[2] = system: Acinetobacter baumannii (Ab); test: Antibacterial MIC assay (CO-ADD); format: cell-based; conditions: 18 h, 37 °C, inhibition ≥ 80%
Method: (§2) The antimicrobial assays were performed according to the protocols of the Community for Open Antimicrobial Drug Discovery (CO-ADD). […] All the sample preparation was done using liquid-handling robots.
as §1

Escherichia coli (Ec) = test: Antibacterial MIC assay (CO-ADD); format: cell-based; conditions: 18 h, 37 °C, inhibition ≥ 80%
Method: as §2, §1

[3] = system: Psedomonas aeruginosa (Pa); test: Antibacterial MIC assay (CO-ADD); format: cell-based; conditions: 18 h, 37 °C, inhibition ≥ 80%
Method: as §2, §1

Candida albicans (Ca) = test: Antifungal MIC assay (CO-ADD); format: cell-based; conditions: 36 h, 35 °C, inhibition ≥ 80%
Method: as §2
The antifungal activity of all synthesized complexes was evaluated in two different fungi, Candida albicans (Ca) and Cryptococcus neoformans (Cn). Fungi strains were cultured for 3 days on yeast extract–peptone–dextrose (YPD) agar at 30 °C. A yeast suspension of 1 × 10^6 to 5 × 10^6 CFU/mL (as determined by OD530) was prepared from five colonies. The suspension was subsequently diluted and added to each well of the complex-containing plates, giving a final cell density of fungus suspension of 2.5 × 10^3 CFU/mL and a total volume of 50 μL. All plates were covered and incubated at 35 °C for 36 h without shaking. […] The absorbance was measured using a Biotek Multiflo Synergy HTX plate reader (Winooski, VT, USA). In both cases, the percentage of growth inhibition was calculated for each well, using the negative control (media only) and positive control (fungi without inhibitors) on the same plate. […] Due to a higher variance in growth and inhibition, a lower threshold was applied to the data for C. neoformans.

| Molecule | bimolecular quenching constant kq (BSA) [M⁻¹ s⁻¹] | Stern–Volmer quenching constant KSV (BSA) [M⁻¹] | number of binding sites n (BSA) | number of binding sites n, rounded (in brackets) (BSA) | MIC Sa [1] [µg/mL] | MIC Ab [2] [µg/mL] | MIC Ec (Escherichia coli (Ec)) [µg/mL] | MIC Pa [3] [µg/mL] | MIC Ca (Candida albicans (Ca)) [µg/mL] |
| --- | --- | --- | --- | --- | --- | --- | --- | --- | --- |
| Cc1ccc(-c2ccccn2)[c]([Au+][S]C(=S)N(C)C)c1.F[P-](F)(F)(F)(F)F [Complex C1, [Au(tpy)(dmdtc)] PF6] | 1.3e+12 | 13000 | 1.72 | 2 | ≤0.25 | >32 | 32 | >32 | >32 |
| CN(C)C(=S)[S][Au+][c]1ccccc1-c1ccccn1.F[P-](F)(F)(F)(F)F [Complex C2, [Au(ppy)(dmdtc)]PF6] | 1.37e+12 | 13700 | 1.42 | 1 | ≤0.25 | 32 | 32 | >32 | 32 |
| CCN(CC)C(=S)[S][Au+][c]1cc(C)ccc1-c1ccccn1.F[P-](F)(F)(F)(F)F [Complex C3, [Au(tpy)(dedtc)]PF6] | 1.9e+12 | 19000 | 0.95 | 1 | ≤0.25 | >32 | 32 | >32 | >32 |
| Cc1ccc2[c](c1)[Au-]1([S]C(N(Cc3ccccc3)Cc3ccccc3)=[S+]1)[n+]1ccccc1-2.F[P-](F)(F)(F)(F)F (stereo not drawn) [Complex C5, [Au(tpy)(dbdtc)]PF6] | 4.43e+12 | 44300 | 1.57 | 1–2 | 32 | >32 | >32 | >32 | 32 |
| F[P-](F)(F)(F)(F)F.S=C([S][Au+][c]1ccccc1-c1ccccn1)N(Cc1ccccc1)Cc1ccccc1 [Complex C6, [Au(ppy)(dbdtc)]PF6] | 6.44e+12 | 64400 | 1.43 | 1 | 4 | 32 | >32 | >32 | 4 |
| [Au(ppy)(dedtc)]PF6 [Complex C4] | 2.01e+12 | 20100 | 1.18 | 1 | ≤0.25 | >32 | 32 | >32 | 32 |
